Results: ChEMBL document CHEMBL1201862, “PubChem BioAssay data set” (2004)
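Protocol summary: plate cells (96-well), add compound at 5 concentrations, incubate 48 h, interpolate endpoints linearly. Abbreviation: GI50, concentration required for 50% inhibition of growth.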 The source made the active and inactive calls. Cut-off read from the data, not from the text of the source: active = GI50 up to about 1.1 µM and inactive = higher.

Assays:
Experiment in all cases: inhibition of tumour cell growth, NCI panel, 48 h
KM-20L2 = system: KM-20L2
M19-MEL = system: M19-MEL
HOP-18 = system: HOP-18
DMS-273 = system: DMS-273
SNB-78 = system: SNB-78
DMS-114 = system: DMS-114
LXFL 529 = system: LXFL 529
XF498 = system: XF498
RXF 631 = system: RXF 631

| SMILES | GI50 (KM-20L2) | GI50 (M19-MEL) | GI50 (HOP-18) | GI50 (DMS-273) | GI50 (SNB-78) | GI50 (DMS-114) | GI50 (LXFL 529) | GI50 (XF498) | GI50 (RXF 631) |
| --- | --- | --- | --- | --- | --- | --- | --- | --- | --- |
| C=Cc1ccc(C)[n+](C[Si](C)(C)O[Si](C)(C)C[n+]2cc(C=C)ccc2C)c1 | > 100 µM (inactive) | > 100 µM (inactive) | > 100 µM (inactive) | > 100 µM (inactive) | > 100 µM (inactive) | > 100 µM (inactive) | > 100 µM (inactive) | – | – |
| C/C(=N\NC(=S)N1CCN(c2ccccn2)CC1)c1ccccn1 | 0.000413 µM (active) | 1.01 µM (active) | – | 0.00069 µM (active) | 5.38 µM (inactive) | 0.0001 µM (active) | 0.000342 µM (active) | 0.000206 µM (active) | – |
| Cn1cnc([N+](=O)[O-])c1Sc1nc2cccnc2s1 | 16.9 µM (inactive) | 14.9 µM (inactive) | – | 16.7 µM (inactive) | 46.9 µM (inactive) | 14.7 µM (inactive) | 12.4 µM (inactive) | 21 µM (inactive) | 14.6 µM (inactive) |
| Cc1cc(O)nc(NNC(C#N)c2ccc([N+](=O)[O-])cc2)n1 (centres undefined) | > 100 µM (inactive) | > 100 µM (inactive) | > 100 µM (inactive) | 91.4 µM (inactive) | 42.6 µM (inactive) | 45.6 µM (inactive) | > 100 µM (inactive) | – | – |
| CN[C@H](C)[C@@H](OC)c1ccccc1 | > 100 µM (inactive) | > 100 µM (inactive) | > 100 µM (inactive) | > 100 µM (inactive) | > 100 µM (inactive) | > 100 µM (inactive) | > 100 µM (inactive) | > 100 µM (inactive) | – |
| CC1C(=O)CCC1C(Sc1ccccc1)(Sc1ccccc1)Sc1ccccc1 (centres undefined) | – | 21.1 µM (inactive) | – | 23.3 µM (inactive) | 37.8 µM (inactive) | 13.8 µM (inactive) | 17.1 µM (inactive) | 24.7 µM (inactive) | 25.9 µM (inactive) |
| O=c1cccccc1NCCCCNc1cccccc1=O | > 100 µM (inactive) | 83.2 µM (inactive) | > 100 µM (inactive) | > 100 µM (inactive) | > 100 µM (inactive) | 31.3 µM (inactive) | 48.8 µM (inactive) | – | > 100 µM (inactive) |
| Cc1ccc(C)c(NC(=O)c2cccc([N+](=O)[O-])c2O)c1 | 24.6 µM (inactive) | 24.7 µM (inactive) | 5.7 µM (inactive) | 24.1 µM (inactive) | 14.1 µM (inactive) | 15.1 µM (inactive) | 35.5 µM (inactive) | 23.2 µM (inactive) | – |
| NCc1ccc(O)c(O)c1O | 30.2 µM (inactive) | 12.8 µM (inactive) | > 56.8 µM (inactive) | 16.9 µM (inactive) | > 65.9 µM (inactive) | 18.8 µM (inactive) | 16.8 µM (inactive) | 26.9 µM (inactive) | – |
| Cc1ccccc1N(CCC#N)C1=NN(C(=O)CC(=O)Nc2ccc(Cl)cc2)C(c2ccccc2)C1 (centres undefined) | > 100 µM (inactive) | > 100 µM (inactive) | > 100 µM (inactive) | > 100 µM (inactive) | > 100 µM (inactive) | > 100 µM (inactive) | > 100 µM (inactive) | – | > 100 µM (inactive) |
| N#CC(C(=N/O)/C(=N/O)C(C#N)c1ccc(Cl)cc1)c1ccc(Cl)cc1 (centres undefined) | > 100 µM (inactive) | > 100 µM (inactive) | 43.6 µM (inactive) | > 100 µM (inactive) | 23.4 µM (inactive) | > 100 µM (inactive) | 30.4 µM (inactive) | > 100 µM (inactive) | – |
| O=C(CCc1nnc2s/c(=C\c3ccccc3[N+](=O)[O-])c(=O)n12)Nc1cc(Cl)c(Cl)cc1Cl | 54 µM (inactive) | 43.2 µM (inactive) | 18.3 µM (inactive) | 54.3 µM (inactive) | 35.2 µM (inactive) | 49.3 µM (inactive) | 21.8 µM (inactive) | 22.6 µM (inactive) | 47.1 µM (inactive) |
| CC(=O)OC1(C#N)CC2OC1C1NC21 (centres undefined) | > 100 µM (inactive) | > 100 µM (inactive) | – | – | > 100 µM (inactive) | > 100 µM (inactive) | > 100 µM (inactive) | > 100 µM (inactive) | > 100 µM (inactive) |
| O=C1NC(=O)C2C1N(Cc1ccccc1)C(=O)N2Cc1ccccc1 (centres undefined) | > 100 µM (inactive) | > 100 µM (inactive) | – | – | > 100 µM (inactive) | > 100 µM (inactive) | > 100 µM (inactive) | > 100 µM (inactive) | > 100 µM (inactive) |
| CC(=O)C1(O)CCC2(O)C3(O)CC=C4CC(O)CCC4(C)C3CC(OC(=O)c3ccc(O)cc3)C12C.COC1CC(OC2C(C)OC(OC3C(C)OC(OC4CCC5(C)C(=CCC6(O)C5CC(OC(=O)c5ccc(O)cc5)C5(C)C(O)(C(C)=O)CCC65O)C4)CC3OC)CC2OC)OC(C)C1O (centres undefined) | – | 35.5 µM (inactive) | 38.7 µM (inactive) | 36.2 µM (inactive) | 20.6 µM (inactive) | – | 24.9 µM (inactive) | 2.03 µM (inactive) | 76 µM (inactive) |
